Laboratory results as given in patent publication US20250230193A1, “CYCLIC COMPOUND HAVING SELECTIVE KRAS INHIBITORY EFFECT ON HRAS AND NRAS” (CHUGAI SEIYAKU KABUSHIKI KAISHA, priority 2022, published 2025).
Where a SMILES comes first, the peptide text is derived from it. Bridges are numbered along the chain shown (N, C = ends). [ ]: non-standard residue; d: D form. The star is where a group is joined. hPhe(3-Cl-4-CF3) = N[C@@H](CCc1ccc(C(F)(F)F)c(Cl)c1)C(=O)O; NPrPhe(4-CF3) = CCCN[C@@H](Cc1ccc(C(F)(F)F)cc1)C(=O)O; Pro(4-spirocPr) = O=C(O)[C@@H]1CC2(CC2)CN1; NMeGly(cPent) = CN[C@H](C(=O)O)C1CCCC1; NMeD = CN[C@@H](CC(=O)O)C(=O)O; NMeL = CN[C@@H](CC(C)C)C(=O)O; Morpholide = C1CN(*)CCO1; NMeA = CN[C@@H](C)C(=O)O; Ac5c = NC1(C(=O)O)CCCC1; Aze = O=C(O)[C@@H]1CCN1; Sar = CNCC(=O)O

Columns and labels:
[1] = target: GDP-bound NRAS wild-type protein (Homo sapiens, UniProt P01111); experiment: Binding to NRAS by surface plasmon resonance (SPR), Single Cycle Kinetics; conditions: SPR
[2] = target: GDP-bound HRAS wild-type protein (Homo sapiens, UniProt P01112); experiment: Binding to HRAS by surface plasmon resonance (SPR), Single Cycle Kinetics; conditions: SPR
[3] = KD ratio, GDP-bound NRAS wild-type vs GDP-bound KRAS wild-type
[4] = KD ratio, GDP-bound HRAS wild-type vs GDP-bound KRAS wild-type

GDP-bound HRAS wild-type protein, sequence (P01112 whole entry): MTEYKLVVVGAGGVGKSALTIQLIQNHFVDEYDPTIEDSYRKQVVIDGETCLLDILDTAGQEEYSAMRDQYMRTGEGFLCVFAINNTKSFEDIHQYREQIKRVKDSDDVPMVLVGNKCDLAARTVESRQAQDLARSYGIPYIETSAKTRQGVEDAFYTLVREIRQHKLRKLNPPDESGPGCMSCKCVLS
GDP-bound NRAS wild-type protein, sequence (P01111 whole entry): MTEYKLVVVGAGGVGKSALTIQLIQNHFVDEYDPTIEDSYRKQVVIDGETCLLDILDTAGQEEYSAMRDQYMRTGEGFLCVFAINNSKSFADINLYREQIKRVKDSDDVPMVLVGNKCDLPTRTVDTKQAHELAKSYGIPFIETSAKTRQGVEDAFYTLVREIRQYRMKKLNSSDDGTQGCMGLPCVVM

Q: How did the “NRAS/KRAS (ratio of KD value for NRAS to KD value for KRAS)” value [1, 3] turn out when `CCCN(C)C(=O)[C@@H]1CC(=O)N(C)[C@@H](C2CCC2)C(=O)N[C@@H]([C@@H](C)CC)C(=O)N(C)CC(=O)N(C)[C@H]2C/C=C\CCN(C2=O)[C@@H](Cc2ccc(C(F)(F)F)cc2)C(=O)N(C)CC(=O)N[C@@H](CCc2cc(F)c(C(F)(F)F)c(F)c2)C(=O)N2C[C@H](OCC)C[C@H]2C(=O)NC2(CCC2)C(=O)N(C)[C@@H](C2CCCC2)C(=O)N1C` [PP1998] was run?
A: A (a compound having 10 or more and less than 20 is denoted as A)

Q: And the “HRAS/KRAS (ratio of KD value for HRAS to KD value for KRAS)” value [2, 4]?
A: B (a compound having 3 or more and less than 10 is denoted as B)

Q: What does the source list for `CCC[C@H]1C(=O)N[C@@H]([C@@H](C)CC)C(=O)N2CCC[C@H]2C(=O)N(C)[C@H]2C/C=C\CCN(C2=O)[C@@H](Cc2ccc(C)cc2)C(=O)N(C)CC(=O)N[C@@H](CCc2ccc(C(F)(F)F)c(OC)c2)C(=O)N2C[C@@H](C)C[C@H]2C(=O)N(C)C2(CCC2)C(=O)N(C)[C@@H](C2CCCC2)C(=O)N(C)[C@H](C(=O)N(C)C)CC(=O)N1C` [PP2368]?
A: NRAS/KRAS (ratio of KD value with respect to NRAS to KD value with respect to KRAS) ([1]; GDP-bound NRAS wild-type vs GDP-bound KRAS wild-type): A (a compound having 10 or more and less than 20 is denoted as A); HRAS/KRAS (ratio of KD value with respect to HRAS to KD value with respect to KRAS) ([2]; GDP-bound HRAS wild-type vs GDP-bound KRAS wild-type): A (a compound having 10 or more and less than 20 is denoted as A)

Q: For `CCO[C@@H]1C[C@H]2C(=O)NC3(CCC3)C(=O)N(C)[C@@H](C3CCCC3)C(=O)N(C)[C@H](C(=O)N(C)C)CC(=O)N(C)[C@@H](CC(C)C)C(=O)N[C@@H]([C@@H](C)CC)C(=O)N3CC[C@H]3C(=O)N(C)[C@H]3CC(C)=CCN(C3=O)[C@@H](Cc3ccc(C(F)(F)F)cc3)C(=O)N(C)CC(=O)N[C@@H](CCc3cc(F)c(C(F)(F)F)c(F)c3)C(=O)N2C1` [PP1033], which “NRAS/KRAS (ratio of KD value with respect to NRAS to KD value with respect to KRAS)” value [1, 3] is on record?
A: C (A compound having a KD ratio of 0.1 or more and less than 3 is denoted as C)

Q: What about the “HRAS/KRAS (ratio of KD value with respect to HRAS to KD value with respect to KRAS)” value [2, 4] of the same molecule?
A: C (A compound having a KD ratio of 0.1 or more and less than 3 is denoted as C)

Q: `CCC[C@H]1C(=O)N[C@@H]([C@@H](C)CC)C(=O)N2CCC[C@H]2C(=O)N(C)[C@H]2C/C=C\CCN(C2=O)[C@@H](Cc2ccc(C)cc2)C(=O)N(C)CC(=O)N[C@@H](CCc2ccc(C(F)(F)F)c(OC)c2)C(=O)N2C[C@H](OCC)C[C@H]2C(=O)N(C)C2(CCC2)C(=O)N(C)[C@@H](C2CCCC2)C(=O)N(C)[C@H](C(=O)N2CCCCC2)CC(=O)N1C` [PP3100, (1S,4S,10S,13S,17S,20S,26S,28R,32S,38S,42Z)-20-cyclopentyl-28-ethoxy-32-[2-[3-methoxy-4-(trifluoromethyl)phenyl]ethyl]-2,14,18,21,24,36-hexamethyl-10-[(1S)-1-methylpropyl]-17-(piperidine-1-carbonyl)-13-propyl-38-(p-tolylmethyl)spiro[2,8,11,14,18,21,24,30,33,36,39-undecazatetracyclo[37.5.1.0^4,8.0^26,30]pentatetracont-42-ene-23,1′-cyclobutane]-3,9,12,15,19,22,25,31,34,37,45-undecone] was tested. Which “NRAS/KRAS (ratio of KD value with respect to GDP-bound NRAS wild-type protein to KD value with respect to KRAS)” value ([1]; KD ratio NRAS/KRAS, GDP-bound wild-type proteins) did it give?
A: A (a compound having 10 or more and less than 20 is denoted as A)

Q: What about the “HRAS/KRAS (ratio of KD value with respect to GDP-bound HRAS wild-type protein to KD value with respect to KRAS)” value ([2]; KD ratio HRAS/KRAS, GDP-bound wild-type proteins) of the same molecule?
A: B (a compound having 3 or more and less than 10 is denoted as B)

Q: What does the source list for `CCO[C@@H]1C[C@H]2C(=O)NC3(CCC3)C(=O)N(C)[C@@H](C3CCCC3)C(=O)N(C)[C@H](C(=O)N(C)C)CC(=O)N(C)[C@@H](COC)C(=O)N[C@@H]([C@@H](C)CC)C(=O)NCC(=O)N(C)[C@H]3CCCCCN(C3=O)[C@@H](Cc3ccc(C(F)(F)F)cc3)C(=O)N(C)CC(=O)N[C@@H](CCc3cc(F)c(C(F)(F)F)c(F)c3)C(=O)N2C1` [PP0859]?
A: NRAS/KRAS (ratio of KD value with respect to NRAS to KD value with respect to KRAS) [1, 3]: B (a compound having 3 or more and less than 10 is denoted as B); HRAS/KRAS (ratio of KD value with respect to HRAS to KD value with respect to KRAS) [2, 4]: B (a compound having 3 or more and less than 10 is denoted as B)

Q: What does the source list for `CCCN1C(=O)[C@@H]2CCN2C(=O)[C@H](C)N(C)C(=O)[C@H]([C@@H](C)CC)NC(=O)[C@H](CC(C)C)N(C)C(=O)C[C@@H](C(=O)N2CCOCC2)N(C)C(=O)[C@H](C2CCCC2)N(C)C(=O)C2(CCCC2)NC(=O)[C@@H]2CC3(CC3)CN2C(=O)[C@H](CCc2ccc(C(F)(F)F)c(Cl)c2)NC(=O)CN(C)C(=O)[C@@H]1Cc1ccc(C(F)(F)F)cc1` [PP0282] ([NMeL]I[NMeA][Aze][NPrPhe(4-CF3)][Sar][hPhe(3-Cl-4-CF3)][Pro(4-spirocPr)][Ac5c][NMeGly(cPent)][NMeD]-Morpholide; lactam N-11)?
A: NRAS/KRAS (ratio of KD for GDP-bound NRAS wild-type to KD for KRAS) ([1]; KD ratio NRAS/KRAS): C (A compound having a KD ratio of 0.1 or more and less than 3 is denoted as C); HRAS/KRAS (ratio of KD for GDP-bound HRAS wild-type to KD for KRAS) ([2]; KD ratio HRAS/KRAS): C (A compound having a KD ratio of 0.1 or more and less than 3 is denoted as C)
